Source: article PMC7760315 (Biomolecules, 2020)
“And” between values parts separate entries of the source, which are not always exact repeats. Equal values may be shown once. Read-outs that look alike come from different tables or passages of the source.

Tests used:
GlyT2 [1] = settings: cited from earlier work
GlyRα1/GlyT2 [2] = biological target: T1, GlyRα1/GlyT2 (Homo sapiens, UniProt Q9Y345); experiment: Two-electrode voltage clamp, oocytes co-expressing GlyRα1/GlyT2; type: cell-based; settings: 1 µM inhibitor; fast-flow
T1 construct: expressed in transfected cells; host or cells: Xenopus laevis oocytes (cRNA co-injection)
T1 sequence (Q9Y345 1-797): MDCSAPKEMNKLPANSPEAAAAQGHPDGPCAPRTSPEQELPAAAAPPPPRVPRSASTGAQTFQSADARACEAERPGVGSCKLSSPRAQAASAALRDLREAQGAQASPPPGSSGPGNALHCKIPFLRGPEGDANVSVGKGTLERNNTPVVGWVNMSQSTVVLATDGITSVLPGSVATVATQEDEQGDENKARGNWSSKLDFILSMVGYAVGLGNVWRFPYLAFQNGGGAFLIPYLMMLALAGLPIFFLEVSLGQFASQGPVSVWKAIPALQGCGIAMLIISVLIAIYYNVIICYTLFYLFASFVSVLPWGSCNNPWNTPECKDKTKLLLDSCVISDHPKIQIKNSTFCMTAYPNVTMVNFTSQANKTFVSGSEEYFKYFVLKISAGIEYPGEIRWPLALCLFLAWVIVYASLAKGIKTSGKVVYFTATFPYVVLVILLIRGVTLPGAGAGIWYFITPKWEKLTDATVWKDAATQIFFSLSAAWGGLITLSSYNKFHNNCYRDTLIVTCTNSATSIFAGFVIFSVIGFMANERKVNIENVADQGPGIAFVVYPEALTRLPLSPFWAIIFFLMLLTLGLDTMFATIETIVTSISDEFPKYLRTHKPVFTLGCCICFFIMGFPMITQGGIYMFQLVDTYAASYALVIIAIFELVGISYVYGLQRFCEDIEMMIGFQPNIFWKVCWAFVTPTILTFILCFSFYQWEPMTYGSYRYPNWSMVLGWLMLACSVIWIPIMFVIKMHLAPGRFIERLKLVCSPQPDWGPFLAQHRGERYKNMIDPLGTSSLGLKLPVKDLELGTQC
Description: (§1) Human GlyT1b and GlyT2a WT cDNA were subcloned into the plasmid oocyte transcription vector (pOTV) and human GlyRα1, GlyRα3 and GlyRβ into pGEMHE. GlyR cDNA pGEMHE vectors were provided by Mary Collins at the University of Sydney (Sydney, Australia). Single point mutations were introduced into GlyRα1 using the Q5 site-directed mutagenesis kit (New England Biolabs (Genesearch), Arundel, Australia) with oligonucleotide primers (Merck, Sydney, Australia) containing the desired mutations. The amplified cDNA/pOTV or cDNA/pGEMHE product was then transformed in E. coli cells, and subsequently purified using the PureLink Quick Plasmid Miniprep Kit (Invitrogen by Life Technologies, Löhne, Germany), and sequenced by the Australian Genome Research Facility (Sydney, Australia). The purified plasmid DNA was linearised via the restriction enzyme, SpeI (New England Biolabs (Genesearch), Arundel, Australia) for GlyT1b and GlyT2a (henceforth referred to as GlyT1 and GlyT2 respectively) and NheI (New England Biolabs (Genesearch)) for GlyRα1, GlyRα3 and GlyRβ. Complementary RNAs were synthesised using the mMESAGE mMACHINE T7 kit (Ambion, Austin, TX, USA).
(§2) All work involving the use of animals was performed in accordance with the Australian Code of Practice for the Care and Use of Animals for Scientific Purposes and approved by the University of Sydney Animal Ethics Committee (Approval numbers 2016/970 and 2020/1704). […] The oocytes were then stored in frog Ringer’s solution (96 mM NaCl, 2 mM KCl, 1 mM MgCl2, 1.8 mM CaCl2, 5 mM HEPES, pH 7.5) which was supplemented with 2.5 mM sodium pyruvate, 0.5 mM theophylline, 50 μg/mL gentamicin and […] tetracycline. The oocytes were stored at 18 °C for 3–5 days, until transporter and receptor expression were adequate for measurement using the two-electrode voltage clamp technique.
(§3) GlyT1, GlyT2, GlyRα1, GlyRα3, GlyRα1β and GlyRα3β are electrogenic, allowing activation to be measured via the two-electrode voltage clamp technique. Oocytes were voltage clamped at −60 mV, and whole-cell currents generated by the substrate were recorded with a Geneclamp 500 amplifier (Axon Instruments, Foster City, CA, USA), digitised by a Powerlab 2/20 chart recorder (ADInstruments, Sydney, Australia). LabChart version 8 software (ADInstruments, Sydney, Australia) was used to visualise and process current traces. Recordings were performed in frog Ringer’s solution, except for low Na^+ experiments where Na^+ was replaced with choline. Oocytes were placed in an oval-shaped bath with a volume of 0.3 mL, with laminar flow around the oocyte at a rate of 12 mL min^−1 under gravity feed.
(§4) Varying concentrations of substrate or agonist were applied to cells in ND96. […]

GlyT2-GFP = settings: read-out: Glycine EC50; tagged transporter alone
Description: (§7) The oocytes were then stored in frog Ringer’s solution (96 mM NaCl, 2 mM KCl, 1 mM MgCl2, 1.8 mM CaCl2, 5 mM HEPES, pH 7.5) which was supplemented with 2.5 mM sodium pyruvate, 0.5 mM theophylline, 50 μg/mL gentamicin and 100 μM mL^−1 tetracycline. The oocytes were stored at 18 °C for 3–5 days, until transporter and receptor expression were adequate for measurement using the two-electrode voltage clamp technique.

GlyT1 = GlyT1 (Homo sapiens, UniProt P48067); settings: read-out: glycine EC50 (transport current); GlyT1 expressed alone
Chain of GlyT1 (P48067 1-652 isoform P48067-3): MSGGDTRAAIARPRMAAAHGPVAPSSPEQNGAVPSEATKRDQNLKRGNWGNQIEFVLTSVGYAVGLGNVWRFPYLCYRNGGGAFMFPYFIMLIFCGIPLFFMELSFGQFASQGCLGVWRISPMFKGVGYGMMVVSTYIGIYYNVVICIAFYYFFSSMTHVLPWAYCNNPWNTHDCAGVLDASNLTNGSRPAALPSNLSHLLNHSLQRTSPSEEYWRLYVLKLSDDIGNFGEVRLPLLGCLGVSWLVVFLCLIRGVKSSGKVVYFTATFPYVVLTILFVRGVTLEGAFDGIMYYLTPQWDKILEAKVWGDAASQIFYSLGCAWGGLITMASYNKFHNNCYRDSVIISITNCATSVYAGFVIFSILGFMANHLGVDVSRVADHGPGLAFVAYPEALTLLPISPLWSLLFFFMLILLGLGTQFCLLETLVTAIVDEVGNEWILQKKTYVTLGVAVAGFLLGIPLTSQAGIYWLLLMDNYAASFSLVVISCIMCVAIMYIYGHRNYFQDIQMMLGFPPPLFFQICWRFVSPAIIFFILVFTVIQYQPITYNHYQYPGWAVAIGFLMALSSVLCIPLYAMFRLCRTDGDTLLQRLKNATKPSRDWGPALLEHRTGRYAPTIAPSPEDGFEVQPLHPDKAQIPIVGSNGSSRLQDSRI
Description: as §1, §2, §3
(§5) Varying concentrations of substrate or agonist were applied to cells in ND96.

GlyT2 [3] = biological target: GlyT2 (Homo sapiens, UniProt Q9Y345); settings: read-out: glycine EC50 (transport current); GlyT2 expressed alone
Description: as §1, §2, §3, §5

GlyRα3/GlyT1 = GlyRα3/GlyT1 (Homo sapiens, UniProt O75311); settings: read-out: Fast-Flow Glycine EC50
Chain of GlyRα3/GlyT1 (O75311 34-464): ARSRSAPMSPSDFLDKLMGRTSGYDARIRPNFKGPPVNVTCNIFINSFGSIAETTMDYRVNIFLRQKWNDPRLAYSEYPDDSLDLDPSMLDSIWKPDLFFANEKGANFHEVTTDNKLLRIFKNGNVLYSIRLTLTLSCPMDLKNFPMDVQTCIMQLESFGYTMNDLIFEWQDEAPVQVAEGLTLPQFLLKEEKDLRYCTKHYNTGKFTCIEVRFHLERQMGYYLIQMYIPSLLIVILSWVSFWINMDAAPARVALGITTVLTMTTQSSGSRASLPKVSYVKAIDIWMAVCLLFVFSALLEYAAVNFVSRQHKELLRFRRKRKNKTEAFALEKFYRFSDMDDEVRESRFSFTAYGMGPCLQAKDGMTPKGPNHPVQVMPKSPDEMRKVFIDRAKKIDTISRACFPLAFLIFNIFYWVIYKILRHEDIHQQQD
Description: as §1, §2, §3, §5

GlyRα3 = GlyRα3 (Homo sapiens, UniProt O75311); settings: read-out: Fast-Flow Glycine EC50
Chain of GlyRα3 (O75311 34-464): as above
Description: as §1, §2, §3, §5

GlyRα3/GlyT2 = GlyRα3/GlyT2 (Homo sapiens, UniProt O75311); settings: read-out: Fast-Flow Glycine EC50
Chain of GlyRα3/GlyT2 (O75311 34-464): as above
Description: as §1, §2, §3, §5

GlyRα1 [4] = biological target: T2, GlyRα1 (Homo sapiens, UniProt P23415); experiment: Two-electrode voltage clamp, Xenopus laevis oocytes expressing GlyRα1 alone; type: cell-based
T2 construct: expressed in transfected cells; host or cells: Xenopus laevis oocytes (cRNA injection)
T2 sequence (P23415 29-457): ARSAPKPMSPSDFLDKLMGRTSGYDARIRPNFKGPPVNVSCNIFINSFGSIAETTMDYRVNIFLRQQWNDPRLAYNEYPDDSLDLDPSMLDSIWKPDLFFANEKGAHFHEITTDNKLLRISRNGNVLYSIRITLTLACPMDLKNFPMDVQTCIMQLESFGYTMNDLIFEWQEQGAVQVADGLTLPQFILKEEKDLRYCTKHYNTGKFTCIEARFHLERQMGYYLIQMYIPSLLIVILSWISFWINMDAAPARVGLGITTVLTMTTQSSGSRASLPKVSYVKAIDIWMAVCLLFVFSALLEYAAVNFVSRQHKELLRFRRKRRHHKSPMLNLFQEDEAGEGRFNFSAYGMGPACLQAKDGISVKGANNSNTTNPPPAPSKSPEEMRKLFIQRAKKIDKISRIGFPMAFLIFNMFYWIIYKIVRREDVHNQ
Description: as §1, §2, §3, §5
(§6) Flow of the solution was stopped until the current plateaued, by manually closing a three-way valve on one end of the bath such that the solution in the bath was static and is referred to henceforth as ‘stop-flow’.

GlyRα1 [5] = settings: cited from earlier work
GlyRα3β/GlyT2 = GlyRα3β/GlyT2 (Homo sapiens, UniProt O75311+P48167); settings: read-out: Fast-Flow Glycine EC50
Chain of GlyRα3β/GlyT2 (O75311 34-464): as the sequence (O75311 34-464) above
Chain of GlyRα3β/GlyT2 (P48167 23-497): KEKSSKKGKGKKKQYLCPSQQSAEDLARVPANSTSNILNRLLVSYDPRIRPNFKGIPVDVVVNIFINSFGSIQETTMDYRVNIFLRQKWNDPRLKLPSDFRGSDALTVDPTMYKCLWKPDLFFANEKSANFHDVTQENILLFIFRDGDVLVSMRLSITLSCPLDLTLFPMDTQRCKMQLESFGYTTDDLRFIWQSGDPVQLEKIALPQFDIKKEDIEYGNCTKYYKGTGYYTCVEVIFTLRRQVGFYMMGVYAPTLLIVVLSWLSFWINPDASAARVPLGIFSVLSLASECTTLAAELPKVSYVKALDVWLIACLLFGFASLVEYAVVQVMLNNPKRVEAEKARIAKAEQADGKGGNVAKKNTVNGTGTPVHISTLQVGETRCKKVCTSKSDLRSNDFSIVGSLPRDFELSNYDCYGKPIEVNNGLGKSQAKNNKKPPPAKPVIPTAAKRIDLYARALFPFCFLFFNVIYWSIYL
Description: (§8) Human GlyT1b and GlyT2a WT cDNA were subcloned into the plasmid oocyte transcription vector (pOTV) and human GlyRα1, GlyRα3 and GlyRβ into pGEMHE. […] Single point mutations were introduced into GlyRα1 using the Q5 site-directed mutagenesis kit (New England Biolabs (Genesearch), Arundel, Australia) with oligonucleotide primers (Merck, Sydney, Australia) containing the desired mutations. […] The purified plasmid DNA was linearised via the restriction enzyme, SpeI (New England Biolabs (Genesearch), Arundel, Australia) for GlyT1b and GlyT2a (henceforth referred to as GlyT1 and GlyT2 respectively) and NheI (New England Biolabs (Genesearch)) for GlyRα1, GlyRα3 and GlyRβ. Complementary RNAs were synthesised using the mMESAGE mMACHINE T7 kit (Ambion, Austin, TX, USA). […]
(§9) GlyT1, GlyT2, GlyRα1, GlyRα3, GlyRα1β and GlyRα3β are electrogenic, allowing activation to be measured via the two-electrode voltage clamp technique. Oocytes were voltage clamped at −60 mV, and whole-cell currents generated by the substrate were recorded with a Geneclamp 500 amplifier (Axon Instruments, Foster City, CA, USA), digitised by a Powerlab 2/20 chart recorder (ADInstruments, Sydney, Australia). […]

GlyRα3β/GlyT1 = GlyRα3β/GlyT1 (Homo sapiens, UniProt O75311+P48167); settings: read-out: Fast-Flow Glycine EC50
Chain of GlyRα3β/GlyT1 (O75311 34-464): as the sequence (O75311 34-464) above
Chain of GlyRα3β/GlyT1 (P48167 23-497): as the sequence (P48167 23-497) above
Description: as §8, §9

GlyRα1-mCherry = settings: read-out: Glycine EC50; tagged receptor alone
Description: as §7

GlyRα1/GlyT2 [6] = experiment: Two-electrode voltage clamp, oocytes co-expressing GlyRα1/GlyT2; type: cell-based, human; settings: for GlyT contribution to overall peak current (current in presence of strychnine as % of current without) / GlyT contribution to stopped flow current (current in presence of strychnine as % of current without): 1 µM strychnine; for GlyT contribution to overall peak current (current in presence of strychnine as % of current without): fast-flow peak; for GlyT contribution to stopped flow current (current in presence of strychnine as % of current without): stop-flow
Description: as §1, §2, §3, §4

GlyRα1/GlyT1 [7] = experiment: Two-electrode voltage clamp, oocytes co-expressing GlyRα1/GlyT1; type: cell-based, human; settings: 1 µM strychnine; for GlyT contribution to overall peak current (current in presence of strychnine as % of current without): fast-flow peak; for GlyT contribution to stopped flow current (current in presence of strychnine as % of current without): stop-flow
Description: as §1, §2, §3, §5, §6

GlyRα1/GlyT1 [8] = biological target: T3, GlyRα1/GlyT1 (Homo sapiens, UniProt P23415); experiment: as above; type: cell-based; settings: non-transportable GlyR agonist; read-out: β-alanine EC50
T3 construct: expressed in transfected cells; host or cells: Xenopus laevis oocytes (cRNA co-injection)
T3 sequence (P23415 29-457): T2 sequence (P23415 29-457)
Description: as §1, §2, §3, §5, §6

GlyRα1/GlyT2 [9] = biological target: GlyRα1/GlyT2 (Homo sapiens, UniProt P23415); experiment: Two-electrode voltage clamp, oocytes co-expressing GlyRα1/GlyT2; type: cell-based
Description: as §1, §2, §3, §4

COc1cc(C(=O)NCC2(N(C)C)CCCC2)cc(OC)c1OCc1ccccc1 [ORG-25543]
IC50 (GlyT2 [1]): 0.016 µM | nH of glycine dose-response in the presence of GlyT inhibitor (GlyRα1/GlyT2 [2]): 2.6 ± 0.4 ns

NCC(=O)O [glycine]
EC50 (GlyT2-GFP): 28.1 µM | EC50 (GlyT1): ~35 µM | EC50 (GlyT2 [3]): 21.8 µM and ~30 µM | EC50 (GlyRα3/GlyT1): 154 µM | EC50 (GlyRα3): 64.8 µM | EC50 (GlyRα3/GlyT2): 160 µM | Peak Current (GlyRα1 [4]): 740.6 ± 105.9 nA | EC50 (GlyRα1 [5]; read-out: glycine EC50, ref 51): 24 µM | EC50 (GlyRα1 [5]; read-out: glycine EC50, ref 52): 42 µM | EC50 (GlyRα1 [5]; read-out: glycine EC50 values in oocytes, variable with maximal current): 20 to 280 µM | EC50 (GlyRα3β/GlyT2): 224 µM | EC50 (GlyRα3β/GlyT1): 220 µM | EC50 (GlyRα1-mCherry): 15.7 µM | EC50 (GlyRα1/GlyT2 [6]; read-out: Fast-Flow Glycine EC50): 30.9 µM and 41.6 µM and 34.1 µM and 27.9 µM and 27.3 µM | EC50 (GlyRα1/GlyT2 [6]; read-out: Glycine EC50): 23 µM | EC50 (GlyRα1/GlyT2 [6]; read-out: Stop-Flow Glycine EC50): 83.1 µM

O=C1C[C@@H]2OCC=C3CN4CC[C@]56c7ccccc7N1[C@H]5[C@H]2[C@H]3C[C@H]46 [strychnine]
GlyT contribution to overall peak current (current in presence of strychnine as % of current without) (GlyRα1/GlyT1 [7]; 10 µM glycine): 53.2 ± 6.9% | GlyT contribution to stopped flow current (current in presence of strychnine as % of current without) (GlyRα1/GlyT1 [7]; 10 µM glycine): 61.5 ± 13.9% | GlyT contribution to overall peak current (current in presence of strychnine as % of current without) (GlyRα1/GlyT1 [7]; 30 µM glycine): 14.4 ± 1.8% | GlyT contribution to stopped flow current (current in presence of strychnine as % of current without) (GlyRα1/GlyT1 [7]; 30 µM glycine): 5.2 ± 1.3% | GlyT contribution to overall peak current (current in presence of strychnine as % of current without) (GlyRα1/GlyT2 [6]; 10 µM glycine): 16.6 ± 3.7% | GlyT contribution to stopped flow current (current in presence of strychnine as % of current without) (GlyRα1/GlyT2 [6]; 10 µM glycine): 16.2 ± 2.1% | GlyT contribution to overall peak current (current in presence of strychnine as % of current without) (GlyRα1/GlyT2 [6]; 30 µM glycine): 1.7 ± 0.4% | GlyT contribution to stopped flow current (current in presence of strychnine as % of current without) (GlyRα1/GlyT2 [6]; 30 µM glycine): 1.6 ± 0.4%

NCCC(=O)O [β-alanine]
EC50 (GlyRα1/GlyT1 [8]): 28 µM | EC50 (GlyRα1 [4]; non-transportable GlyR agonist, read-out: β-alanine EC50): 28.3 µM | EC50 (GlyRα1/GlyT2 [9]): 27.4 µM
